# Test results taken from US8354414B2, “Substituted bicyclic pyrimidines” (Cephalon, Inc, priority 2006, dated 2013).
# Like-named read-outs stand apart in the source and are kept apart here.
# Legend:
# His6-GSK-3β = biological target: T1, His6-GSK-3β (Homo sapiens, UniProt P49841); test: Inhibition of His6-GSK-3β kinase activity (ELISA-based format, time-resolved fluorescence readout); assay type: biochemical; details: read-out: GSK3β IC50
# T1 construct: made in house; host or cells: Sf21 insect cells (baculovirus)
# T1 sequence (P49841 2-419): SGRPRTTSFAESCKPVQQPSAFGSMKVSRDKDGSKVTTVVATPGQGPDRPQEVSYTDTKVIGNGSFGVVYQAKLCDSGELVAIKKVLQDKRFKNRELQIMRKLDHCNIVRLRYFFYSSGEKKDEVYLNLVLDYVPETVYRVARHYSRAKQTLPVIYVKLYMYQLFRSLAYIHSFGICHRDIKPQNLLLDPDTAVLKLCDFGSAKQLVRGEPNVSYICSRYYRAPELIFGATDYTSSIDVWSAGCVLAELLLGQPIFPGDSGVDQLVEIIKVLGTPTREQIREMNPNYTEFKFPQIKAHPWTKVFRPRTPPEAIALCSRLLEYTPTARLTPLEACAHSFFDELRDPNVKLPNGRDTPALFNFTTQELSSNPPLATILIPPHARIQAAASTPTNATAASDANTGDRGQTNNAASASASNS
# Procedure, shortened: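 N-terminal His6-tagged full-length human GSK-3β (aa 2-419) expressed in Sf21 cells, 200 ng/ml, phosphorylating plate-coated GST-Rb with 20 μM ATP in pH 7.2 HEPES buffer, 30 min at 37° C. Phospho-Rb (Ser-780) detected by antibody plus Eu-labelled secondary, time-resolved fluorescence; IC50 from curves.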
# CDK5/GST-p25 = biological target: T2, CDK5/GST-p25 (Homo sapiens, UniProt Q00535); test: Inhibition of CDK5/GST-p25 kinase activity (ELISA with time-resolved fluorescence readout); assay type: biochemical
# T2 construct: The final construct, encoding for full-length human CDK5; made in house; host or cells: Sf21 insect cells (baculovirus co-infection)
# T2 sequence (Q00535 whole entry): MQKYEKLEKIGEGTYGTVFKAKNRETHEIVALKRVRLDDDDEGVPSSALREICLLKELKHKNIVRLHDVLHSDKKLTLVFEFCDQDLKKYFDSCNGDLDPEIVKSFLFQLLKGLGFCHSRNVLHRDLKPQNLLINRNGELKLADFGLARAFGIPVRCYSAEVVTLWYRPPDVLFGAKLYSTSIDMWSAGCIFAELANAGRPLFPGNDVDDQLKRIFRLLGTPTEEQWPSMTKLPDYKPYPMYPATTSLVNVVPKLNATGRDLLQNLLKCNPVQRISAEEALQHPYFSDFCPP
# T2 sequence (Q15078 108-307 partner limits assumed): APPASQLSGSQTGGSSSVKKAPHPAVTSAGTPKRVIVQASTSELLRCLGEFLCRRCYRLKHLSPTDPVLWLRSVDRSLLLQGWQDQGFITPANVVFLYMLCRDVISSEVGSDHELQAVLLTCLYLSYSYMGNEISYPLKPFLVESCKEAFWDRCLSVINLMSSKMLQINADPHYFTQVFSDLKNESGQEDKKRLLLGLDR
# Procedure, shortened: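 Sf21-coexpressed full-length human CDK5 with GST-p25 (p35 aa 108-307), glutathione-purified, at 2 ng/ml was reacted for 20 min at 37 °C on plate-coated GST-Rb(773-928). Buffer was 20 mM HEPES pH 7.2, 10 µM ATP, 10 mM MgCl2 and 2.5% DMSO. Phospho-Rb Ser-780 was detected by Eu-labelled antibody TRF, and IC50 curves were fitted.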
smiles,measurement,setting,value
"N#Cc1ccc2c(c1)NC(=O)C2c1ncnc2c1cnn2C1CCCC1 (stereo not drawn) [Example 63, 3-(1-Cyclopentyl-1H-pyrazolo [3,4-d]pyrimidin-4-yl)-2-oxo-2,3-dihydro-1H-indole-6-carbonitrile]",melting point,,335 to 338 °C
same,IC50,His6-GSK-3β; class symbols,0.3 to 3 µM
same,IC50,CDK5/GST-p25; class symbols,> 10 µM
"N#Cc1cccc2c1NC(=O)C2c1ncnc2c1cnn2C1CCCC1 (stereo not drawn) [Example 64, 3-(1-Cyclopentyl-1H-pyrazolo [3,4-d]pyrimidin-4-yl)-2-oxo-2,3-dihydro-1H-indole-7-carbonitrile]",melting point,,327 to 332 °C
same,IC50,His6-GSK-3β; class symbols,> 10 µM
same,IC50,CDK5/GST-p25; class symbols,> 10 µM
"O=C1Nc2ccc(F)cc2C1c1ncnc2c1cnn2C1CCCC1 (stereo not drawn) [Example 65, 3-(1-Cyclopentyl-1H-pyrazolo[3,4-d]pyrimidin-4-yl)-5-fluoro-1,3-dihydro-indol-2-one]",melting point,,254 to 257 °C
same,IC50,His6-GSK-3β; class symbols,> 10 µM
same,IC50,CDK5/GST-p25; class symbols,> 10 µM
"O=C1Nc2cc(F)ccc2C1c1ncnc2c1cnn2C1CCCC1 (stereo not drawn) [Example 66, 3-(1-Cyclopentyl-1H-pyrazolo[3,4-d]pyrimidin-4-yl)-6-fluoro-1,3-dihydro-indol-2-one]",melting point,,230 to 233 °C
same,IC50,His6-GSK-3β; numeric bounds,> 3 µM
same,IC50,CDK5/GST-p25; class symbols,> 10 µM
"O=C1Nc2ccc(F)c(F)c2C1c1ncnc2c1cnn2C1CCCC1 (stereo not drawn) [Example 67, 3-(1-Cyclopentyl-1H-pyrazolo[3,4-d]pyrimidin-4-yl)-4,5-difluoro-1,3-dihydro-indol-2-one]",melting point,,> 300 °C
same,IC50,His6-GSK-3β; class symbols,> 10 µM
same,IC50,CDK5/GST-p25; class symbols,> 10 µM
"N#Cc1ccc2c(c1)C(c1ncnc3c1cnn3C1CCCCC1)C(=O)N2 (stereo not drawn) [Example 68, 3-(1-Cyclohexyl-1H-pyrazolo [3,4-de]pyrimidin-4-yl)-2-oxo-2,3-dihydro-1H-indole-5-carbonitrile]",melting point,,> 300 °C
same,IC50,His6-GSK-3β; class symbols,> 10 µM
same,IC50,CDK5/GST-p25; class symbols,> 10 µM
"N#Cc1ccc2c(c1)NC(=O)C2c1ncnc2c1cnn2C1CCCCC1 (stereo not drawn) [Example 69, 3-(1-Cyclohexyl-1H-pyrazolo[3,4-d]pyrimidin-4-yl)-2-oxo-2,3-dihydro-1H-indole-6-carbonitrile]",melting point,,> 300 °C
same,IC50,His6-GSK-3β; class symbols,> 10 µM
same,IC50,CDK5/GST-p25; numeric bounds,> 3 µM
"N#Cc1cccc2c1NC(=O)C2c1ncnc2c1cnn2C1CCCCC1 (stereo not drawn) [Example 70, 3-(1-Cyclohexyl-1H-pyrazolo [3,4-d]pyrimidin-4-yl)-2-oxo-2,3-dihydro-1H-indole-7-carbonitrile]",melting point,,> 300 °C
same,IC50,His6-GSK-3β; class symbols,> 10 µM
same,IC50,CDK5/GST-p25; class symbols,> 10 µM
"O=C1Nc2ccc(C(F)(F)F)cc2C1c1ncnc2c1cnn2C1CCCCC1 (stereo not drawn) [Example 71, 3-(1-Cyclohexyl-1H-pyrazolo [3,4-d]pyrimidin-4-yl)-5-trifluoromethyl-1,3-dihydro-indol-2-one]",melting point,,> 300 °C
same,IC50,His6-GSK-3β; class symbols,> 10 µM
same,IC50,CDK5/GST-p25; class symbols,> 10 µM
"O=C1Nc2ccc(F)cc2C1c1ncnc2c1cnn2C1CCCCC1 (stereo not drawn) [Example 72, 3-(1-Cyclohexyl-1H-pyrazolo[3,4-d]pyrimidin-4-yl)-5-fluoro-1,3-dihydro-indol-2-one]",melting point,,282 to 286 °C
same,IC50,His6-GSK-3β; class symbols,> 10 µM
same,IC50,CDK5/GST-p25; class symbols,> 10 µM
"O=C1Nc2cc(F)ccc2C1c1ncnc2c1cnn2C1CCCCC1 (stereo not drawn) [Example 73, 3-(1-Cyclohexyl-1H-pyrazolo[3,4-d]pyrimidin-4-yl)-6-fluoro-1,3-dihydro-indol-2-one]",melting point,,277 to 280 °C
same,IC50,His6-GSK-3β; class symbols,> 10 µM
same,IC50,CDK5/GST-p25; class symbols,> 10 µM
"O=C1Nc2ccc(Cl)cc2C1c1ncnc2c1cnn2C1CCCCC1 (stereo not drawn) [Example 74, 5-Chloro-3-(1-Cyclohexyl-1H-pyrazolo[3,4-d]pyrimidin-4-yl)-1,3-dihydro-indol-2-one]",melting point,,300 to 305 °C
same,IC50,His6-GSK-3β; class symbols,> 10 µM
same,IC50,CDK5/GST-p25; class symbols,> 10 µM
"O=C1Nc2ccc(Br)cc2C1c1ncnc2c1cnn2C1CCCCC1 (stereo not drawn) [Example 75, 5-Bromo-3-(1-Cyclohexyl-1H-pyrazolo[3,4-d]pyrimidin-4-yl)-1,3-dihydro-indol-2-one]",melting point,,305 to 308 °C
same,IC50,His6-GSK-3β; class symbols,> 10 µM
same,IC50,CDK5/GST-p25; class symbols,> 10 µM
"C=CCn1cc2c(C3C(=O)Nc4ccc(C#N)cc43)ncnc2n1 (stereo not drawn) [Example 76, 3-(2-Allyl-2H-pyrazolo[3,4-d]pyrimidin-4-yl)-2-oxo-2,3-dihydro-1H-indole-5-carbonitrile]",melting point,,> 300 °C
same,IC50,His6-GSK-3β; class symbols,0.3 to 3 µM
same,IC50,CDK5/GST-p25; class symbols,< 0.3 µM
"Cn1cc2c(C3C(=O)Nc4ccc(Br)cc43)ncnc2n1 (stereo not drawn) [Example 82, 5-Bromo-3-(2-methyl-2H-pyrazolo[3,4-d]pyrimidin-4-yl)-1,3-dihydro-indol-2-one]",melting point,,360 to 365 °C
same,IC50,His6-GSK-3β; class symbols,0.3 to 3 µM
same,IC50,CDK5/GST-p25; class symbols,< 0.3 µM
"Cn1cc2c(C3C(=O)Nc4ccc(C#N)cc43)ncnc2n1 (stereo not drawn) [Example 84, 3-(2-Methyl-2H-pyrazolo [3,4-d]pyrimidin-4-yl)-2-oxo-2,3-dihydro-1H-indole-5-carbonitrile]",melting point,,> 350 °C
same,IC50,His6-GSK-3β; class symbols,0.3 to 3 µM
same,IC50,CDK5/GST-p25; class symbols,< 0.3 µM
"Cn1ncc2c(C3C(=O)Nc4ccc(Br)cc43)ncnc21 (stereo not drawn) [Example 85, 5-Bromo-3-(1-methyl-1H-pyrazolo[3,4-d]pyrimidin-4-yl)-1,3-dihydro-indol-2-one]",melting point,,> 350 °C
same,IC50,His6-GSK-3β; numeric bounds,> 3 µM
same,IC50,CDK5/GST-p25; class symbols,< 0.3 µM
"Cn1ncc2c(C3C(=O)Nc4ccc(Cl)cc43)ncnc21 (stereo not drawn) [Example 86, 5-Chloro-3-(1-methyl-1H-pyrazolo[3,4-d]pyrimidin-4-yl)-1,3-dihydro-indol-2-one]",melting point,,> 320 °C
same,IC50,His6-GSK-3β; class symbols,> 10 µM
same,IC50,CDK5/GST-p25; class symbols,< 0.3 µM
"[N-]=[N+]=NCCCn1cc2c(C3C(=O)Nc4ccc(Br)cc43)ncnc2n1 (stereo not drawn) [Example 89, 3-[2-(3-azido-propyl)-2H-pyrazolo[3,4-d]pyrimidin-4-yl]-5-bromo-1,3-dihydro-indol-2-one]",melting point,,252 to 256 °C
same,IC50,His6-GSK-3β; class symbols,< 0.3 µM
same,IC50,CDK5/GST-p25; class symbols,< 0.3 µM
"CCCn1ncc2c(C3C(=O)Nc4ccc(C#N)cc43)ncnc21 (stereo not drawn) [Example 93, 3-(1-propyl-1H-pyrazolo[3,4-d]pyrimidin-4-yl)-2-oxo-2,3-dihydro-1H-indole-5-carbonitrile]",melting point,,> 300 °C
same,IC50,His6-GSK-3β; class symbols,> 10 µM
same,IC50,CDK5/GST-p25; class symbols,> 10 µM
"CCCn1ncc2c(C3C(=O)Nc4ccc(Cl)cc43)ncnc21 (stereo not drawn) [Example 95, 5-Chloro-3-(1-propyl-2H-pyrazolo[3,4-d]pyrimidin-4-yl)-1,3-dihydro-indol-2-one]",melting point,,293 to 297 °C
same,IC50,His6-GSK-3β; class symbols,> 10 µM
same,IC50,CDK5/GST-p25; numeric bounds,> 3 µM
"CCCn1cc2c(C3C(=O)Nc4ccc(C#N)cc43)ncnc2n1 (stereo not drawn) [Example 96, 3-(2-propyl-1H-pyrazolo[3,4-d]pyrimidin-4-yl)-2-oxo-2,3-dihydro-1H-indole-5-carbonitrile]",melting point,,> 300 °C
same,IC50,His6-GSK-3β; class symbols,< 0.3 µM
same,IC50,CDK5/GST-p25; class symbols,< 0.3 µM
"CCCn1cc2c(C3C(=O)Nc4ccc(Br)cc43)ncnc2n1 (stereo not drawn) [Example 97, 5-Bromo-3-(2-propyl-2H-pyrazolo[3,4-d]pyrimidin-4-yl)-1,3-dihydro-indol-2-one]",melting point,,> 300 °C
same,IC50,His6-GSK-3β; class symbols,< 0.3 µM
same,IC50,CDK5/GST-p25; class symbols,< 0.3 µM
"CCCn1cc2c(C3C(=O)Nc4ccc(Cl)cc43)ncnc2n1 (stereo not drawn) [Example 98, 5-Chloro-3-(2-propyl-2H-pyrazolo[3,4-d]pyrimidin-4-yl)-1,3-dihydro-indol-2-one]",melting point,,302 to 306 °C
same,IC50,His6-GSK-3β; class symbols,< 0.3 µM
same,IC50,CDK5/GST-p25; class symbols,< 0.3 µM
CCCn1cc2c(C3C(=O)Nc4ccc(F)cc43)ncnc2n1 (stereo not drawn) [Example 100],melting point,,288 to 292 °C
same,IC50,His6-GSK-3β; class symbols,0.3 to 3 µM
same,IC50,CDK5/GST-p25; class symbols,< 0.3 µM
"Cn1ncc2c(C3C(=O)Nc4ccc(C#N)cc43)ncnc21 (stereo not drawn) [Example 108, 3-(1-methyl-1H-pyrazolo[3,4-d]pyrimidin-4-yl)-2-oxo-2,3-dihydro-1H-indole-5-carbonitrile]",melting point,,> 300 °C (dec.)
same,IC50,His6-GSK-3β; class symbols,> 10 µM
same,IC50,CDK5/GST-p25; class symbols,< 0.3 µM
"N#Cc1ccc2c(c1)C(c1ncnc3[nH]ncc13)C(=O)N2 (stereo not drawn) [Example 109, 2-Oxo-3-(1H-pyrazolo[3,4-d]pyrimidin-4-yl)-2,3-dihydro-1H-indole-5-carbonitrile]",melting point,,> 300 °C (dec.)
same,IC50,His6-GSK-3β; class symbols,< 0.3 µM
same,IC50,CDK5/GST-p25; class symbols,< 0.3 µM
"Cn1nc([N+](=O)[O-])c2c(C3C(=O)Nc4ccc(C#N)cc43)ncnc21 (stereo not drawn) [Example 148, 3-(1-Methyl-3-nitro-1H-pyrazolo[3,4-d]pyrimidin-4-yl)-2-oxo-2,3-dihydro-1H-indole-5-carbonitrile]",melting point,,> 300 °C (dec.)
same,IC50,His6-GSK-3β; class symbols,> 10 µM
same,IC50,CDK5/GST-p25; class symbols,> 10 µM
"C=CCNc1nc(C2C(=O)Nc3ccc(C#N)cc32)c2cn(C3CCCC3)nc2n1 (stereo not drawn) [Example 149, 3-(6-Allylamino-2-cyclopentyl-2H-pyrazolo[3,4-d]pyrimidin-4-yl)-2-oxo-2,3-dihydro-1H-indole-5-carbonitrile]",melting point,,> 300 °C
same,IC50,His6-GSK-3β; class symbols,< 0.3 µM
same,IC50,CDK5/GST-p25; class symbols,< 0.3 µM
"CC(C)Nc1nc(C2C(=O)Nc3ccc(C#N)cc32)c2cn(C3CCCC3)nc2n1 (stereo not drawn) [Example 150, 3-(2-cyclopentyl-6-isopropylamino-2H-pyrazolo [3,4-d]pyrimidin-4-yl)-2-oxo-2,3-dihydro-1H-indole-5-carbonitrile]",melting point,,> 300 °C
same,IC50,His6-GSK-3β; class symbols,< 0.3 µM
same,inhibition at 10 µM,CDK5/GST-p25,76%
"CC(=O)NCCNc1nc(C2C(=O)Nc3ccc(C#N)cc32)c2cn(C3CCCC3)nc2n1 (stereo not drawn) [Example 151, 3-(6-(2-acetylamino-ethylamino)-2-cyclopentyl-2H-pyrazolo [3,4-d]pyrimidin-4-yl)-2-oxo-2,3-dihydro-1H-indole-5-carbonitrile]",melting point,,> 300 °C
same,IC50,His6-GSK-3β; class symbols,< 0.3 µM
same,IC50,CDK5/GST-p25; class symbols,< 0.3 µM
